Key:
[1] = biological target: FGFR2 (Homo sapiens (Human), UniProt P21802); assay: TR-FRET kinase inhibition assay, FGFR2; type: biochemical; conditions: ATP Km concentration (30 μM)
Method: (§1) To measure the IC50 values of the compounds against FGFR1, FGFR2, FGFR3, FGFR4, and FGFR2 V564F at ATP Km concentrations by TR-FRET method.
(§2) TR-FRET (time-resolved fluorescence resonance energy transfer) method was used to detect the inhibitory activity of the compounds on FGFR1, FGFR2, FGFR3, FGFR4, and FGFR2 V564F kinase region fragments. The highest detection concentration of the compounds in 5 kinase experiments was 1000 nM, which was diluted in 3 folds, with a total of 11 concentrations (1000 nM to 0.017 nM). A kinase buffer (50 mM HEPES pH 7.5, 1 mM EGTA, 10 mM MgCl2, 2 mM DTT, and 0.01% Tween-20) was used to prepare 4× enzyme solution, 4× compound solutions diluted in gradient, and a 2×ATP/Peptide substrate solution. To a 384-well plate, 2.5 μL of enzyme solution and 2.5 μL of diluted […] compound solution were added, and 5 μL of 2×ATP/Peptide substrate solution was then added. After reacting at room temperature for 60 minutes for FGFR1, FGFR2, FGFR3, and FGFR2 V564F kinases, and 120 minutes for FGFR4 kinase, 10 μL of a 2× termination and detection mixed liquid prepared with 1×LANCE detection buffer with an EDTA concentration of 20 mM and a Europium-anti-phosphotyrosine (PT66) concentration of 2 nM was added to each well of the plate. After reacting at room temperature for 60 minutes for FGFR1, FGFR2, FGFR3, and FGFR4, and 30 minutes for FGFR2 V564F, the fluorescence signal value in each well of the plate was measured by a microplate reader.
(§3) 1) Inhibition rate (%): Calculation was performed on the raw data (665 nm/620 nm reading ratio) according to the following formula to obtain the inhibition rate. Inhibition rate %=[(mean value in positive control well−value in sample well)/(mean value in positive control well−mean value in negative control well)]×100, wherein the positive control well was a reaction well without a compound […], and the negative control well was a reaction wells without an enzyme.
(§4) 2) Curve fitting: Log(inhibitor) vs. response—Variable slope (four parameters) in GraphPad Prism 6 was used for fitting equation analysis of the compound concentration and the corresponding inhibition rate, and the curve was fitted to obtain the IC50 values of the compounds.

[2] = biological target: FGFR2 V564F (Homo sapiens (Human), UniProt P21802, V564F); assay: TR-FRET kinase inhibition assay, FGFR2 V564F; type: biochemical; conditions: ATP Km concentration (20 μM)
Method: as §1, §2, §3, §4

[3] = biological target: FGFR1 (Homo sapiens (Human), UniProt P11362); assay: TR-FRET kinase inhibition assay, FGFR1; type: biochemical; conditions: ATP Km concentration (30 μM)
Method: as §1, §2, §3, §4

[4] = tested on: BaF3 FGFR2-BICC1 V564F cells; assay: CellTiter-Glo cell proliferation inhibition, BaF3 FGFR2-BICC1 V564F; type: cell-based; conditions: Mus musculus, 72 h, read-out: BaF3 FGFR2-BICC1 V564F inhibitory activity IC50
Method: To evaluate inhibitory effects of the compounds on the proliferation of NCI-H716, SNU-16 and BaF3-FGFR2-BICC1 V564F cells by cell proliferation inhibition experiments.
CellTiter-Glo method was used to detect inhibitory effects of the compounds on the proliferation of NCI-H716, SNU-16 and BaF3 FGFR2-BICC1 V564F cells. The highest detection concentration of the compounds was 1000 nM, which was diluted in 3 folds, with a total of 9 concentrations (1000 nM to 0.15 nM). After the cells were plated at an appropriate density, compounds were added the next day and incubated for 72 h before detection using the […] detection kit.
as §3, with “(%):” for “(%): Calculation was performed on the raw data (665 nm/620 nm reading ratio) according to the following formula to obtain the inhibition rate.”
as §4

[5] = Pharmacokinetic experiment in SD rats after oral administration; type: in vivo; conditions: 5 mg/kg, plasma
Method: To study the pharmacokinetic behavior of the compounds of the present invention in the rat body (plasma) after oral administration at a dose of 5 mg/kg using SD rats as test animals.
3 SD rats/group, male, from Shanghai Jiesijie Experimental Animal Co., Ltd., animal production license number (SCXK (Shanghai) 2013-0006 N0.311620400001794).
PO, 10% solutol HS15-0.5% CMC-Na was dissolved by ultrasound and prepared into a clear solution or homogeneous suspension.
3 SD rats/group, male; p.o. respectively at a dose of 5 mg/kg and an administration volume of 10 mL/kg after the […] were fasted overnight.
After oral administration to rats, at 0.25, 0.5, 1, 2, 4, 6, 8 and 24 hours, 0.2 mL of blood was collected from the jugular vein, placed in an EDTA-K2 test tube, centrifuged at 6000 rpm for 6 min at 4° C. to separate the plasma, which was stored at −80° C.
1) 100 μL of acetonitrile was added to 20 μL of plasma sample for pelleting, and it was mixed and centrifuged at 3500×g for 5-20 min.
2) The treated supernatant solution was taken and subjected to LC/MS/MS to analyze the concentrations of the test compounds. LC/MS/MS analysis instrument: AB Sciex API 4000 Qtrap.
• Liquid phase conditions: Shimadzu LC-20AD pump • Chromatographic column: Waters Xbridge C18 5 μm, 4.6×50 mm mobile phase: liquid A was 0.1% aqueous formic acid solution, and liquid B was methanol • Flow rate: 1.0 mL/min • Elution time: 0-4.0 min, the eluent was as follows: […]

Chain of FGFR2 (P21802 481-770): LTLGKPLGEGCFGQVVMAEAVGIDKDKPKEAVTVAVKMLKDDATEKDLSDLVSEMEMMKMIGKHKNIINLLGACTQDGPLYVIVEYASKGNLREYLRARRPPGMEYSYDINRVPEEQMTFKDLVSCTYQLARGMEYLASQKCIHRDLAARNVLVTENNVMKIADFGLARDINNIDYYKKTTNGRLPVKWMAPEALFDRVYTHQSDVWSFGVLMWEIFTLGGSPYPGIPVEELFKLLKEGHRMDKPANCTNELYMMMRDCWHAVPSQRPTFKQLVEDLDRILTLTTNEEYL
Chain of FGFR2 V564F (P21802 481-770 V564F): as the sequence (P21802 481-770) above, with V84F counted along it
Chain of FGFR1 (P11362 478-767): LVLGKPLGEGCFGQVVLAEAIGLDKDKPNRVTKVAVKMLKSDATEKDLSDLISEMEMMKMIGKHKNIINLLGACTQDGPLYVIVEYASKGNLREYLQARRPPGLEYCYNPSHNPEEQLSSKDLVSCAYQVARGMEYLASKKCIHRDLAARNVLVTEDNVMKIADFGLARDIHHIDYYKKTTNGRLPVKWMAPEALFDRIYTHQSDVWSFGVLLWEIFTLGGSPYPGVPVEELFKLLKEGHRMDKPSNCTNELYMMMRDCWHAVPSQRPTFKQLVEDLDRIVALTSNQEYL

| Structure (SMILES) | IC50 [1] | IC50 [2] | IC50 [4] | also measured |
| --- | --- | --- | --- | --- |
| C=CC(=O)N1CC[C@H](n2nc(C#Cc3cc4ncn(CC)c4cc3F)c3c(N)ncc(-c4cscn4)c32)C1 [Example 62, (S)-1-(3-(4-amino-3-((1-ethyl-6-fluoro-1H-benzo[d]imidazol-5-yl)ethynyl)-7-(thiazol-4-yl)-1H-pyrazolo[4,3-c]pyridin-1-yl)pyrrolidin-1-yl)prop-2-en-1-one] | 2.4 nM | 1.2 nM |  |  |
| C=CC(=O)N1CC[C@H](n2nc(C#Cc3cc4ncn(C5CC5)c4cc3Cl)c3c(N)ncc(-c4ccn(C)n4)c32)C1 [Example 43, (S)-1-(3-(4-amino-3-((6-chloro-1-cyclopropyl-1H-benzo[d]imidazol-5-yl)ethynyl)-7-(1-methyl-1H-pyrazol-3-yl)-1H-pyrazolo[4,3-c]pyridin-1-yl)pyrrolidin-1-yl)prop-2-en-1-one] |  | 1.1 nM |  |  |
| C=CC(=O)N1CC[C@H](n2nc(C#Cc3c(F)cc4c(ncn4C)c3F)c3c(N)ncc(-c4cscn4)c32)C1 [Example 29, (S)-1-(3-(4-amino-3-((4,6-difluoro-1-methyl-1H-benzo[d]imidazol-5-yl)ethynyl)-7-(thiazol-4-yl)-1H-pyrazolo[4,3-c]pyridin-1-yl)pyrrolidin-1-yl)prop-2-en-1-one] | 1.5 nM | 3.6 nM |  | IC50 [3]: 7.1 nM |
| C=CC(=O)N1CC[C@H](n2nc(C#Cc3ccc4c(c3)ncn4CC)c3c(N)ncc(C(C)=O)c32)C1 [Example 56, (S)-1-(3-(7-acetyl-4-amino-3-((1-ethyl-1H-benzo[d]imidazol-5-yl)ethynyl)-1H-pyrazolo[4,3-c]pyridin-1-yl)pyrrolidine-1-methyl)prop-2-en-1-one] | 1.8 nM | 0.7 nM | 3.5 nM |  |
| C=CC(=O)N1CC[C@H](n2nc(C#Cc3cc4ncn(C5CC5)c4cc3F)c3c(N)ncc(C)c32)C1 [Example 51, (S)-1-(3-(4-amino-3-((1-cyclopropyl-6-fluoro-1H-benzo[d]imidazol-5-yl)ethynyl)-7-methyl-1H-pyrazolo[4,3-c]pyridin-1-yl)pyrrolidin-1-yl)prop-2-en-1-one] |  | 3.3 nM |  |  |
| C=CC(=O)N1CC[C@H](n2nc(C#Cc3ccc4oc(C5CC5)nc4c3)c3c(N)ncnc32)C1 [B, reference compound] |  | 18.4 nM | 11.5 nM |  |
| C=CC(=O)N1CC[C@H](n2nc(C#Cc3cc4ncn(C5CC5)c4cc3F)c3c(N)ncc(C(=O)C(C)C)c32)C1 [Example 50] | 2.6 nM | 1 nM | 2.1 nM |  |
| C=CC(=O)N1CC[C@H](n2nc(C#Cc3cc4ncn(C)c4cc3F)c3c(N)nccc32)C1 [A, reference compound] | 12.8 nM | 6.1 nM | 7.4 nM |  |
| C=CC(=O)N1CC[C@H](n2nc(C#Cc3cc4ncn(C)c4cc3F)c3c(N)ncc(-c4cscn4)c32)C1 [Example 14, 1-[(3S)-3-[4-amino-3-[2-(6-fluoro-1-methyl-benzo[d]imidazol-5-yl)ethynyl]-7-thiazol-4-yl-pyrazolo[4,3-c]pyridin-1-yl]pyrrolidin-1-yl]-2-propen-1-one] | 2.4 nM | 1.3 nM |  |  |
| C=CC(=O)N1CC[C@H](n2nc(C#Cc3ccc4c(c3)ncn4CC)c3c(N)ncc(C(=O)C(C)C)c32)C1 [Example 59] | 3.4 nM | 1.1 nM | 4 nM |  |
| C=CC(=O)N1CC[C@H](n2nc(C#Cc3ccc4c(c3)ncn4C3CC3)c3c(N)ncc(-c4ccn(C)n4)c32)C1 [Example 42, (S)-1-(3-(4-amino-3-((1-cyclopropyl-1H-benzo[d]imidazol-5-yl)ethynyl)-7-(1-methyl-1H-pyrazol-3-yl)-1H-pyrazolo[4,3-c]pyridin-1-yl)pyrrolidine-1-methyl)prop-2-en-1-one] |  | 3.9 nM |  |  |
| C=CC(=O)N1CC[C@H](n2nc(C#Cc3cc4ncn(C5CC5)c4cc3F)c3c(N)ncc(C4CC4)c32)C1 [Example 52, (S)-1-(3-(4-amino-7-cyclopropyl-3-((1-cyclopropyl-6-fluoro-1H-benzo[d]imidazol-5-yl)alkynyl)-1H-pyrazolo[4,3-c]pyridin-1-yl)pyrrolidin-1-yl)prop-2-en-1-one] |  | 1.8 nM |  |  |
| C=CC(=O)N1CC[C@H](n2nc(C#Cc3ccc4c(c3)nc(C)n4C3CC3)c3c(N)ncc(C(C)=O)c32)C1 [Example 53, (S)-1-(3-(7-acetyl-4-amino-3-((1-cyclopropyl-2-methyl-1H-benzo[d]imidazol-5-yl)ethynyl)-1H-pyrazolo[4,3-c]pyridin-1-yl)pyrrolidin-1-yl)prop-2-en-1-one] | 3.5 nM | 1.9 nM | 4.9 nM |  |
| C=CC(=O)N1CC[C@H](n2nc(C#Cc3cc4ncn(C5CC5)c4cc3Cl)c3c(N)ncc(C(=O)C(C)C)c32)C1 [Example 47] |  | 1 nM | 0.5 nM |  |
| C=CC(=O)N1CC[C@H](n2nc(C#Cc3ccc4c(c3)ncn4C3CC3)c3c(N)ncc(C(=O)C(C)C)c32)C1 [Example 40] |  | 1.9 nM |  |  |
| C=CC(=O)N1CC[C@H](n2nc(C#Cc3cc4ncn(C5CC5)c4cc3F)c3c(N)ncc(C(=O)CC)c32)C1 [Example 48, (S)-1-(3-(4-amino-3-((1-cyclopropyl-6-fluoro-1H-benzo[d]imidazol-5-yl)ethynyl)-7-propionyl-1H-pyrazolo[4,3-c]pyridin-1-yl)pyrrolidin-1-yl)prop-2-en-1-one] | 1.7 nM | 0.8 nM | 1.4 nM | AUC(0-t) ([5]; male, Sprague-Dawley (SD), rat, po, read-out: Area under the curve AUC0-t): 4120 ng·h/mL; AUC(0-inf) ([5]; male, Sprague-Dawley (SD), rat, po, read-out: Area under the curve AUC0-∞): 4150 ng·h/mL; half-life ([5]; male, Sprague-Dawley (SD), rat, po, read-out: Half-life t1/2 (converted)): 3.9 h; MRT ([5]; male, Sprague-Dawley (SD), rat, po, read-out: Mean residence time MRT): 4.2 h; Cmax ([5]; male, Sprague-Dawley (SD), rat, po, read-out: Plasma concentration Cmax): 795 ng/mL; Time to peak tmax ([5]; p.o.): 2 h |
| C=CC(=O)N1CC[C@H](n2nc(C#Cc3cc4ncn(C)c4cc3Cl)c3c(N)ncc(C(C)=O)c32)C1 [Example 67, (S)-1-(3-(7-acetyl-4-amino-3-((6-chloro-1-methyl-1H-benzo[d]imidazol-5-yl)ethynyl)-1H-pyrazolo[4,3-c]pyridin-1-yl)pyrrolidin-1-yl)prop-2-en-1-one] |  | 1.6 nM | 1.6 nM |  |
| C=CC(=O)N1CC[C@H](n2nc(C#Cc3cc4ncn(C)c4cc3F)c3c(N)ncc(C4CC4)c32)C1 [Example 20, (S)-1-(3-(4-amino-7-cyclopropyl-3-((6-fluoro-1-methyl-1H-benzo[d]imidazol-5-yl)ethynyl)-1H-pyrazolo[4,3-c]pyridin-1-yl)pyrrolidin-1-yl)prop-2-en-1-one] |  | 2.8 nM |  |  |

— US20250152564A1, “PROPYLENE KETONE-CONTAINING BIOINHIBITOR, PREPARATION METHOD THEREFOR, AND USE THEREOF” (SHANGHAI HANSOH BIOMEDICAL CO., LTD., priority 2022, published 2025)
